Measured values: patent publication US20230416329A1, “A PEPTIDE WITH DISULFIDE BONDS AND INHIBITORY ACTIVITY AGAINST SERINE PROTEASES, DERIVED HYBRID PEPTIDES THEREOF, AND USES THEREOF” (INSTITUTE OF MATERIA MEDICA , CHINESE ACADEMY OF MEDICAL …, priority 2020, published 2023)
Bridge positions count the residues as written; N and C are the ends. Ends that are not written are not given here. Peptide text beside a SMILES is read from it.

Key:
chymotrypsin = chymotrypsin (Bos taurus, UniProt P00766); test: in vitro
Outline: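 RP-HPLC peak area tracked intact peptide after 37 °C digestion with chymotrypsin (0.05 μg/μL solution, 5 min preincubation). Samples were withdrawn at 1.5-60.0 min and stopped with 10% TFA.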

[1] = molecular target: T1, interaction of PCSK9-LDLR (Homo sapiens, UniProt Q8NBP7); test: PCSK9-LDLR in vitro binding assay (inhibitory rate); conditions: for inhibitory activity on the interaction between PCSK9 and LDLR (in words): in vitro
T1 construct: purchased MBL Company, Beijing, China CY-8150
Experimental: Polypeptide PCSK9_1-14 (SEQ ID NOs: 210-223) is dissolved in pure water or DMSO. 85 μL reaction buffer, 5 μL 1 mM polypeptide sample and 10 μL 750 ng/mL PCSK9 protein was pre-incubated at room temperature for 20 minutes before being added to a 96 well plate. The OD450/540 nm value was measured according to the instructions of the PCSK9-LDLR in Vitro Binding Assay Kit (CY-8150, MBL Company, Beijing, China). Solvent control: replace polypeptide with 5 μL solvent. In 100 μL reaction system, the final concentration of the polypeptide and PCSK9 is 50 μM and 75 ng/mL, respectively.
Inhibition rate of polypeptide (%)=(OD450/540 nm(solvent control)−OD450/540 nm (sample))/OD450/540 nm(solvent control)×100

elastase = elastase (Sus scrofa, UniProt P00772); test: in vitro
Outline: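 Peptides and elastase (0.5 μg/μL solution) each pre-warmed 5 min at 37° C, then mixed; aliquots taken at 1.5 to 60.0 min and quenched with 10% TFA. Remaining intact peptide quantified as RP-HPLC peak area.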

[2] = system: P407-induced hyperlipidemia mice; test: Subcutaneous injection of PCSK9 inhibitory peptide, serum total cholesterol in P407-induced hyperlipidemia mice; assay type: in vivo, mouse; conditions: serum, subcutaneous 2 μmol/kg, mean ± sd; for TC 15 min: 15 min after administration; for TC 30 min: 30 min after administration; for TC 60 min: 60 min after administration; for TC 90 min: 90 min after administration; for TC 120 min: 120 min after administration
Experimental: The experimental peptide sample was prepared using PEG400 with a final concentration of […], and the final concentration of PEG400 is 20% (w/v). Normal ICR mice were fasted overnight with water ad libitum. The next day, all of the mice were randomly divided into model control group (Con) and polypeptide administration group (2 μmol/kg) according to body weight. Then, all of the mice were intraperitoneally injected with P407 (500 mg/kg) and fed with feed 2 hours later. Six mice were taken as a normal control group (Nor). After 24 hours, the mice in Con were subcutaneously injected with saline containing 20% PEG400, and the mice in the treatment group were given peptides. Then, the blood was taken at different time points after administration to determine the serum total cholesterol (TC) level. In consideration of the complexity of factors affecting serum LDL-C levels, especially the differences between single and long-term administration, the in vivo activity of PCSK9 inhibitory peptide is mainly observed for changes in serum TC levels.

[3] = isolated enzyme chymotrypsin, pH 7.8, Residual peak area (%)/chymotrypsin
[4] = isolated enzyme elastase, pH 8, Residual peak area (%)/elastase

elastase, sequence (P00772 27-266): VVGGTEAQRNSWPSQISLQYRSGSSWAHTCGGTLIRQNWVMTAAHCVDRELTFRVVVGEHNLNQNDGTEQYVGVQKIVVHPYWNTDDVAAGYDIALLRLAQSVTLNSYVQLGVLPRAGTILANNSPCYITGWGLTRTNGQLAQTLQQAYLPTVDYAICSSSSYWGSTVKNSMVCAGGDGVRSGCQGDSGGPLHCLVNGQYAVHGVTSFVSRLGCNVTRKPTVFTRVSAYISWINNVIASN

Question: For CC[C@H](C)[C@@H]1NC(=O)[C@@H]2CCCN2C(=O)[C@@H]2CCCN2C(=O)[C@H]([C@@H](C)CC)NC(=O)[C@H](CO)NC(=O)[C@H](CCCCN)NC(=O)[C@H]([C@@H](C)O)NC(=O)[C@H](C)NC(=O)[C@H](CCCNC(=N)N)NC(=O)CNC(=O)[C@@H](NC(=O)[C@@H](NC(=O)[C@H](Cc2ccc(O)cc2)NC(=O)[C@H](CC(=O)O)NC(=O)[C@H](CC(C)C)NC(=O)[C@H](Cc2ccc(O)cc2)NC(=O)[C@H](CCC(=O)O)NC(=O)[C@H](CCC(=O)O)NC(=O)[C@@H](N)Cc2c[nH]c3ccccc23)C(C)C)CSSC[C@@H](C(=O)N[C@@H](Cc2ccccc2)C(=O)NCC(=O)N[C@H](C(=O)N[C@H](C(=O)N[C@@H](Cc2ccccc2)C(=O)N[C@H](C(=O)N[C@@H](CO)C(=O)O)[C@@H](C)O)C(C)C)[C@@H](C)O)NC1=O [PCSK9_6] (H-WEEYLDYVCGRATKSIPPICFGTVFTS-OH; disulfide 9-20), which “Residual peak area (%)/chymotrypsin” value (chymotrypsin) is on record?
Answer: The value was 100.0 ± 0.0%.

Question: What about the “stability towards chymotrypsin hydrolysis (in words)” value (chymotrypsin) of the same compound?
Answer: The value was “certain inhibitory effects on the other two proteases chymotrypsin and elastase”.

Question: And the remaining at 0.025 h, 60 μM (chymotrypsin; [3])?
Answer: Its remaining at 0.025 h, 60 μM is 59.9 ± 8.2%.

Question: And the remaining at 0.05 h, 60 μM (chymotrypsin; [3])?
Answer: The remaining at 0.05 h, 60 μM was 47.1 ± 8%.

Question: What about the remaining at 0.075 h, 60 μM (chymotrypsin; [3]) of the same compound?
Answer: The remaining at 0.075 h, 60 μM was 33.6 ± 3%.

Question: And the remaining at 0.1 h, 60 μM (chymotrypsin; [3])?
Answer: Its remaining at 0.1 h, 60 μM is 33.9 ± 3.2%.

Question: And the remaining at 0.15 h, 60 μM (chymotrypsin; [3])?
Answer: Its remaining at 0.15 h, 60 μM is 25.9 ± 3.3%.

Question: What about the remaining at 0.25 h, 60 μM (chymotrypsin; [3]) of the same compound?
Answer: Its remaining at 0.25 h, 60 μM is 14.5 ± 0.8%.

Question: What about the remaining at 0.5 h, 60 μM (chymotrypsin; [3]) of the same compound?
Answer: The remaining at 0.5 h, 60 μM was 2.2 ± 0.1%.

Question: What about the remaining at 1 h, 60 μM (chymotrypsin; [3]) of the same compound?
Answer: Its remaining at 1 h, 60 μM is 1 ± 0.9%.

Question: And the inhibition at 50 µM ([1]; sample 50 μM, PCSK9 75 ng/mL)?
Answer: Its inhibition at 50 µM is 87 ± 1.1%.

Question: What about the “Residual peak area (%)/elastase” value (elastase) of the same compound?
Answer: Its value is 100.0 ± 0.0%.

Question: And the “stability towards elastase hydrolysis (in words)” value (elastase)?
Answer: Its value is “certain inhibitory effects on the other two proteases chymotrypsin and elastase”.

Question: What about the remaining at 0.025 h, 60 μM (elastase; [4]) of the same compound?
Answer: The remaining at 0.025 h, 60 μM was 62.9 ± 4.8%.

Question: What about the remaining at 0.05 h, 60 μM (elastase; [4]) of the same compound?
Answer: Its remaining at 0.05 h, 60 μM is 59.3 ± 10.9%.

Question: And the remaining at 0.075 h, 60 μM (elastase; [4])?
Answer: The remaining at 0.075 h, 60 μM was 56.4 ± 5.3%.

Question: And the remaining at 0.1 h, 60 μM (elastase; [4])?
Answer: Its remaining at 0.1 h, 60 μM is 55.3 ± 6.8%.

Question: What about the remaining at 0.15 h, 60 μM (elastase; [4]) of the same compound?
Answer: The remaining at 0.15 h, 60 μM was 67.8 ± 9.3%.

Question: What about the remaining at 0.25 h, 60 μM (elastase; [4]) of the same compound?
Answer: The remaining at 0.25 h, 60 μM was 48.9 ± 9.4%.

Question: What about the remaining at 0.5 h, 60 μM (elastase; [4]) of the same compound?
Answer: The remaining at 0.5 h, 60 μM was 39.6 ± 1.2%.

Question: And the remaining at 1 h, 60 μM (elastase; [4])?
Answer: Its remaining at 1 h, 60 μM is 48.3 ± 9.4%.

Question: With “Thr-Val-Phe-Thr-Ser-Trp-Glu-Glu-Ala-Leu-Asp-Trp-Val-Gly-Phe-Cys-Thr-Tyr-Ser-Ile-Pro-Pro-Gln-Cys-Tyr-Gly (TVFTSWEEALDWVGFCTYSIPPQCYG-OH; disulfide 16-24 (inferred)) [PCSK9_2CH]” as the compound, how does the “inhibitory activity on the interaction between PCSK9 and LDLR (in words)” value (from here on “inhibitory activity”) [1] read?
Answer: Its value is “good inhibitory activity on the interaction between PCSK9 and LDLR”.

Question: What about the “inhibitory activity” value ([1]; listed as SEQ ID NO: 224) of the same compound?
Answer: Its value is “good inhibitory effects in vitro”.

Question: What about the “TC 15 min” value [2] of the same compound?
Answer: Its value is 2772 ± 762 µg/mL.

Question: What about the “TC 30 min” value [2] of the same compound?
Answer: Its value is 2586 ± 700 µg/mL.

Question: And the “TC 60 min” value [2]?
Answer: The value was 2737 ± 762 µg/mL.

Question: What about the “TC 90 min” value [2] of the same compound?
Answer: Its value is 2489 ± 760 µg/mL.

Question: What does the source list for “PCSK9_8: Pep2-8 analogue containing the anti-trypsin peptide scaffold BT9 (Table 23) (TVFTSGCGRATKSIPPICFSWEEYLDWV; disulfide 7-18 (inferred))”?
Answer: inhibitory activity on the interaction between PCSK9 and LDLR (in words) [1]: good inhibitory activity on the interaction between PCSK9 and LDLR; inhibitory activity on the interaction between PCSK9 and LDLR (in words) ([1]; listed as SEQ ID NO: 217): good inhibitory effects in vitro; TC 15 min [2]: 2269 ± 489 µg/mL; TC 30 min [2]: 2216 ± 465 µg/mL; TC 60 min [2]: 2074 ± 470 µg/mL; TC 90 min [2]: 2037 ± 509 µg/mL

Question: How did the “inhibitory activity” value [1] turn out when “CGRATKSIPPICFGTVFTSWEEALDWV (cysteine pairing not given here)” was run?
Answer: Its value is “good inhibitory activity on the interaction between PCSK9 and LDLR”.

Question: What about the “inhibitory activity” value ([1]; listed as SEQ ID NO: 212) of the same compound?
Answer: The value was “good inhibitory effects in vitro”.

Question: What about the “TC 15 min” value [2] of the same compound?
Answer: The value was 3466 ± 662 µg/mL.

Question: What about the “TC 30 min” value [2] of the same compound?
Answer: The value was 3490 ± 741 µg/mL.

Question: What about the “TC 60 min” value [2] of the same compound?
Answer: Its value is 3294 ± 649 µg/mL.

Question: And the “TC 90 min” value [2]?
Answer: The value was 3265 ± 678 µg/mL.

Question: What does the source list for “Thr-Val-Phe-Thr-Ser-Gly-Ile-Cys-Thr-Ala-Ser-Ile-Pro-Pro-Ile-Cys-Gln-Trp-Glu-Glu-Tyr-Leu-Asp-Trp-Val (TVFTSGICTASIPPICQWEEYLDWV; disulfide 8-16 (inferred)) [PCSK9_9EC]”?
Answer: inhibitory activity on the interaction between PCSK9 and LDLR (in words) [1]: good inhibitory activity on the interaction between PCSK9 and LDLR; inhibitory activity on the interaction between PCSK9 and LDLR (in words) ([1]; listed as SEQ ID NO: 233): good inhibitory effects in vitro; TC 15 min [2]: 2789 ± 797 µg/mL; TC 30 min [2]: 2744 ± 909 µg/mL; TC 60 min [2]: 2676 ± 783 µg/mL; TC 90 min [2]: 2657 ± 838 µg/mL

Question: Which results are given for “Thr-Val-Phe-Thr-Ser-Gly-Cys-Gly-Arg-Ala-Thr-Lys-Ser-Ile-Pro-Pro-Ile-Cys-Phe-Trp-Glu-Glu-Tyr-Leu-Asp-Trp-Val (TVFTSGCGRATKSIPPICFWEEYLDWV; disulfide 7-18 (inferred)) [PCSK9_7]”?
Answer: inhibitory activity on the interaction between PCSK9 and LDLR (in words) [1]: good inhibitory activity on the interaction between PCSK9 and LDLR; inhibitory activity on the interaction between PCSK9 and LDLR (in words) ([1]; listed as SEQ ID NO: 216): good inhibitory effects in vitro; TC 30 min [2]: 3398 ± 990 µg/mL; TC 60 min [2]: 3618 ± 954 µg/mL; TC 90 min [2]: 3461 ± 937 µg/mL; TC 120 min [2]: 337.6 ± 95.8 mg/dL

Question: “ICTASIPPICQGTVFTSWEEALDWV (cysteine pairing not given here)” was tested. Which “inhibitory activity” value [1] did it give?
Answer: The value was “good inhibitory activity on the interaction between PCSK9 and LDLR”.

Question: And the “inhibitory activity” value ([1]; listed as SEQ ID NO: 227)?
Answer: The value was “good inhibitory effects in vitro”.

Question: And the “TC 15 min” value [2]?
Answer: Its value is 2885 ± 769 µg/mL.

Question: And the “TC 30 min” value [2]?
Answer: The value was 2673 ± 724 µg/mL.

Question: And the “TC 60 min” value [2]?
Answer: The value was 2695 ± 699 µg/mL.

Question: What about the “TC 90 min” value [2] of the same compound?
Answer: Its value is 2605 ± 759 µg/mL.

Question: How did the “inhibitory activity” value [1] turn out when “Thr-Val-Phe-Thr-Ser-Trp-Glu-Glu-Ala-Leu-Asp-Trp-Val-Cys-Gly-Arg-Ala-Thr-Lys-Ser-Ile-Pro-Pro-Ile-Cys-Phe (TVFTSWEEALDWVCGRATKSIPPICF; disulfide 14-25 (inferred)) [PCSK9_2]” was run?
Answer: The value was “good inhibitory activity on the interaction between PCSK9 and LDLR”.

Question: What about the “inhibitory activity” value ([1]; listed as SEQ ID NO: 211) of the same compound?
Answer: Its value is “good inhibitory effects in vitro”.

Question: What about the “TC 30 min” value [2] of the same compound?
Answer: Its value is 3079 ± 1081 µg/mL.

Question: And the “TC 60 min” value [2]?
Answer: The value was 3178 ± 1039 µg/mL.

Question: What about the “TC 90 min” value [2] of the same compound?
Answer: The value was 3078 ± 1044 µg/mL.

Question: And the “TC 120 min” value [2]?
Answer: Its value is 295.5 ± 95.4 mg/dL.
